Data taken from patent US5141925A, “Vivo methods for treating coccidiosis” (Trustees of Tufts College, priority 1990, dated 1992).

B1: Fetuin (protein, UniProt P12763 19-359, looked up)
Alpha-2-HS-glycoprotein: IPLDPVAGYKEPACDDPDTEQAALAAVDYINKHLPRGYKHTLNQIDSVKVWPRRPTGEVYDIEIDTLETTCHVLDPTPLANCSVRQQTQHAVEGDCDIHVLKQDGQFSVLFTKCDSSPDSAEDVRKLCPDCPLLAPLNDSRVVHAVEVALATFNAESNGSYLQLVEISRAQFVPLPVSVSVEFAVAATDCIAKEVVDPTKCNLLAEKQYGFCKGSVIQKALGGEDVRVTCTLFQTQPVIPQPQPDGAEAEAPSAVPDAAGPTPSAAGPPVASVVVGPSVVAVPLPLHRAHYDLRHTFSGVASVESSSGEAFHVGKTPIVGQPSIPGGPVRLCPGRIRYFKI
notes: glycoprotein

Experiments:
[1] = tested on: E. tenella lectin; assay: Hemagglutination inhibition assay, lectin of E. tenella sporozoite lysate (rabbit erythrocytes); assay type: biochemical, Eimeria tenella; conditions: minimum concentration inhibiting 4 hemagglutination units of lectin; 2% rabbit erythrocytes, room temperature, 60 minutes
Description: (§1) The lectin activity is preferably determined by a hemagglutination assay of rabbit erythrocytes. It is desirably performed in "U" well microtiter plates using lysates prepared from the parasites of interest. The sporozoites of the parasite of interest are washed three times in phosphate buffered saline (PBS), and adjusted to a concentration of 1×10^7 /ml. They are lysed by sonication in "Branson" sonicator; cleared of particulate material by filtration; and assayed for lectin activity using a conventionally known hemagglutination assay. In this assay, 2% rabbit erythrocytes in PBS are added to serial doubling dilutions of the prepared test lysate in PBS containing 2 mg/ml of bovine serum albumin (BSA) and incubated at 23° C. (i.e., room temperature) for 1 hour. Lectin titer is defined as the reciprocal of the highest agglutinating dilution as determined by direct observation, which is defined as one agglutinating unit.
(§2) Sugar specificity and characterization is determined by a standard hemagglutination inhibition assay. 2% rabbit erythrocytes are added to serial doubling dilutions of the sugar-comprising test compound in PBS containing 2 mg/ml BSA and 4 hemagglutination units of lectins; followed by incubation at room temperature for 60 minutes. The minimum inhibitory concentration of the test compound is defined as the minimum concentration which is required for inhibiting 4 hemagglutination units of lectins. The following represent examples of suitable test compounds: (1) glycoproteins such as fetuine, bovine submaxillary mucin, hog gastric mucin, and -1- acid glycoprotein; (2) monosaccharides such as arabinose, fucose, glucose, galactose, mannose, N-acetylglucosamine, and N-acetylgalactosamine and their derivatives; and (3) oligosaccharides including chitobiose and chitotetrose.

[2] = tested on: E. acervulina lectin; assay: Hemagglutination inhibition assay, lectin of E. acervulina sporozoite lysate (rabbit erythrocytes); assay type: biochemical, Eimeria acervulina; conditions: minimum concentration inhibiting 4 hemagglutination units of lectin; 2% rabbit erythrocytes, room temperature, 60 minutes
Description: as §1, §2

[3] = tested on: E. maxima lectin; assay: Hemagglutination inhibition assay, lectin of E. maxima sporozoite lysate (rabbit erythrocytes); assay type: biochemical, Eimeria maxima; conditions: minimum concentration inhibiting 4 hemagglutination units of lectin; 2% rabbit erythrocytes, room temperature, 60 minutes
Description: as §1
Sugar specificity and characterization is determined by a standard hemagglutination inhibition assay. 2% rabbit erythrocytes are added to serial doubling dilutions of the sugar-comprising test compound in PBS containing 2 mg/ml BSA and 4 hemagglutination units of lectins; followed by incubation at room temperature for 60 minutes. […]

[4] = tested on: embryonic chick kidney cells; assay: 3H uracil counts of host cells with fetuin, no parasite; assay type: cell-based; conditions: Host Cells + 15 mg/ml Fetuin, mean of eight cultures
Procedure: (§3) The sporozoites are then pretreated for one hour in cell culture nutrient (Waymouth's MAB 87/3, without serum) containing various concentration of inhibiting sugars, such as 0.1, 1.0, and 10.0 mg/ml fetuine, before being inoculated onto 24-48 hour primary cultures of embryonic chick kidney cells prepared in 24 or 96 well plates. Treatment with the inhibiting sugar, such as fetuine, is continuous at the tested concentration during the incubation period, allowing the parasite development to proceed for 48 or 96 hours. Nutrient is changed every 48 hours. Because parasites developing in cell culture, but not the host cells, take up ^3 H uracil, add 2 u Ci to each well in a 96 well plate 18 to 24 hours beore counting by liquid scintillation. Nutrient is removed from the parasitized cell cultures which are then treated with PBS solution, pH 7.6-7.8, containing 0.5% trypsin and 0.022% EDTA to detach the cells from the culture vessel, and harvested with a PHD Cell Harvester (Cambridge Instrument) onto glass fiber filter discs. Individual discs are placed into scintillation vials with 3.5 ml Toluene (plus 5.262 grams per 4 liters of PPO [2,5-diphenyloxazole]) and samples are then counted in a Beckman scintillation counter.

[5] = tested on: E. tenella; assay: Inhibition of E. tenella development in cell culture (3H uracil uptake, Schmatz et al.); assay type: cell-based, Eimeria tenella; conditions: for Scintillation Counts (24 hr), Trial 1 / Scintillation Counts (24 hr), Trial 2: 96 hours development, mean of eight cultures
Procedure: A series of experimental assays were performed to measure the in vitro inhibition of Coccidia infections by compositions comprising at least one sugar. The inhibition assay is one developed by Schmatz et al. [J. Protozology 33:109-114 (1986)] in which inhibition of sporozoite development is correlated with a decrease in ^3 H uracil uptake by the host cells.
Sporozoites are excysted aseptically from sterile coccidis oocysts, cleaned of debris by passage through a cellulose or glass wool column, counted, and diluted to a concentration of approximately 2.5×10^5 sporozoites per ml.
as §3

[6] = Host Cells + Parasite + 5 mg/ml Fetuin
[7] = Host Cells + Parasite + 10 mg/ml Fetuin
[8] = Host Cells + Parasite + 15 mg/ml Fetuin

Row | Molecule | Lowest Concentration that Inhibited Lectin Agglutination, E. tenella [1] | Lowest Concentration that Inhibited Lectin Agglutination, E. acervulina [2] | also measured
1 | C[C@@H]1OC(O)[C@@H](O)[C@H](O)[C@@H]1O (single isomer, unassigned) [L(-)-Fucose] | 1.25 mg/mL |  | 
2 | COC1O[C@H](CO)[C@@H](O)[C@H](O)[C@H]1O (stereo partly drawn) [1-o-CH3 -D-Glucoside] | 4.1 mg/mL |  | 
3 | O=C[C@@H](O)[C@H](O)[C@H](O)CO [Arabinose] |  | 25.0 mg/mL | 
4 | CC(=O)N[C@H]1[C@H](O[C@H]2[C@H](O)[C@@H](NC(C)=O)C(O)O[C@@H]2CO)O[C@H](CO)[C@@H](O[C@@H]2O[C@H](CO)[C@@H](O[C@@H]3O[C@H](CO)[C@@H](O)[C@H](O)[C@H]3NC(C)=O)[C@H](O)[C@H]2NC(C)=O)[C@@H]1O (stereo partly drawn) [Chitotetrose] | 0.03 mg/mL |  | 
5 | O=[N+]([O-])c1ccc(OC2O[C@H](CO)[C@@H](O)[C@H](O)[C@H]2O)cc1 (stereo partly drawn) [P-Nitro-o-D-Glucoside] | 12.5 mg/mL |  | 
6 | Acid Glycoprotein | 1.25 mg/mL | 0.5 mg/mL | 
7 | Bovine Submaxillary Mucin [Bovine Submaxillary Mucin (BSM)] | 0.083 mg/mL | 0.03 mg/mL | 
8 | Chitobiose | 1.25 mg/mL |  | 
9 | Hog Gastric Mucin | 0.125 mg/mL | 0.5 mg/mL | 
10 | B1 | 0.078 mg/mL | 0.13 mg/mL | Lowest Concentration that Inhibited Lectin Agglutination, E. maxima [3]: 0.4 mg/mL; Scintillation Counts (24 hr), Trial 1 [4]: 7,826.4; Scintillation Counts (24 hr), Trial 2 [4]: 1,942.7; Scintillation Counts (24 hr), Trial 1 [5, 6]: 8,135.0; Scintillation Counts (24 hr), Trial 2 [5, 6]: 1,394.7; Scintillation Counts (24 hr), Trial 1 [5, 7]: 8,625.6; Scintillation Counts (24 hr), Trial 2 [5, 7]: 1,556.4; Scintillation Counts (24 hr), Trial 1 [5, 8]: 4,328.3; Scintillation Counts (24 hr), Trial 2 [5, 8]: 796.1; 3H uracil uptake, inhibition of E. tennella development (in words) ([5]; summary of Table E2): substantial reductions
